Assay results reported in patent publication US20240197680A1, “VORUCICLIB DOSING REGIMENS AND METHODS OF TREATMENT INCLUDING THE SAME” (MEI Pharma, Inc., priority 2021, published 2024).

Assays:
Solid Tumors [1] = test: Monotherapy Phase 1 study in solid tumors, 2 weeks on/1 week off schedule; assay type: in vivo, human; conditions: 29 pts
clinical = conditions: human, in vivo
Excerpt: Voruciclib half-life is designated as t1/2 in the tables (expressed in hours). […] There is interpatient variability, explaining the outlier values.

[2] = PK of voruciclib, 2 weeks of daily dosing followed by 1 week without dosing in a 21-day cycle (Table 1); assay type: in vivo, human; conditions: mean
[3] = tested on: Relapsed/Refractory B-cell malignancies; Relapsed/Refractory AML; assay type: in vivo, human
Protocol: Study population: Relapsed/Refractory B-cell malignancies; Relapsed/Refractory AML; Dose escalation with standard 3+3 design.
Endpoints: Safety and tolerability, Pharmacokinetics, Biologic correlative studies (BH3 profiling, MCL-1 expression, molecular mutations analysis), Response rates.
Voruciclib single agent dose escalation: 50 mg>100 mg>150 mg>200 mg.
Differentiation syndrome seen in 5 pts (50%) (Increased WBC without increased in blasts, bone pain, pulmonary symptoms; Response to corticosteroids).

c-MYC expression = test: Gene biomarkers in Phase 1 daily dosing study: c-MYC expression in solid tumors; assay type: in vivo, human
[4] = tested on: Venetoclax Sensitive and Resistant Cell Lines; test: Synergy with venetoclax in cell lines; assay type: cell-based; conditions: Ven Sensitive and Ven Resistant cell lines
Excerpt: FIG. 4A: Ven Sensitive; FIG. 4B: Ven Resistant.

Solid Tumors [5] = test: Monotherapy Phase 1 study in solid tumors, daily continuously schedule; assay type: in vivo, human
Gelling in aqueous media = assay type: physicochemical
Protocol: Voruciclib can form a gel when dissolved in various media, depending on the other chemicals present. […] In general, voruciclib was more prone to gel at suspension concentrations >5 mg/mL and solubilities >0.5 mg/mL.

[6] = Monotherapy Phase 1 studies in solid tumors: safety profile; assay type: in vivo, human; conditions: Phase 1 monotherapy
[7] = tested on: HCT-116 CRC cell xenograft; conditions: SCID, mouse, in vivo, po, 100 mg/kg
Protocol: Animals were randomized into 2 groups when tumors reached 100 mm diameter. Group A assigned single dosing. […] Drug concentration was measured in tumor and plasma after last dose at the following time points: 0, 4, 8, 24, 48, 72 hrs. […] Concentration of voruciclib in plasma is in units of μg/ml and in μg/g for tumors.

[8] = PK of voruciclib, daily dosing continuously (Table 2); assay type: in vivo, human; conditions: mean; for Accumulation Ratio (AUC0-t): Day 15/Day 1

- additional time to clear from the tissue after it clears the plasma (clinical): 3 days
- half-life (clinical): 120 to 240 h
- t½ ([2]; Day 1, 600 mg): 32.544 h
- AUC0-∞ ([2]; Day 13, 300 mg): 59331.780 ng·h/mL
- t½ ([2]; Day 13, 300 mg): 16.166 h
- t½ ([2]; Day 13, 850 mg): 22.380 h
- Cmax and AUC dose dependence ([3]; human, in vivo): Dose proportional
- volume of distribution ([3]; human, in vivo): High
- solubility at which more prone to gel (Gelling in aqueous media): > 500 µg/mL
- suspension concentration at which more prone to gel (Gelling in aqueous media): > 5 mg/mL
- Gelling (Gelling in aqueous media; pH 1.6 (FaSSGF)): Gelling was observed
- Gelling (Gelling in aqueous media; pH 6.5 (FaSSIF)): Gelling was observed
- level in tumor at 8 hours compared to 24 hours post dosing [7]: > 5 fold
- t½ ([8]; Day 1, 75 mg): 21.776 h
- AUC0-∞ ([8]; Day 1, 150 mg): 15592.890 ng·h/mL
- AUC0-∞ ([8]; Day 1, 250 mg): 16383.699 ng·h/mL
- Cmax ([8]; Day 1, 250 mg): 471.955 ng/mL
- AUC0-24 ([8]; Day 1, 350 mg): 10388.095 ng·h/mL
- CL/F ([8]; Day 1, 350 mg): 4.224 L/h
- AUC0-24 ([8]; Day 1, 500 mg): 16370.472 ng·h/mL
- AUC0-t ([8]; Day 1, 500 mg): 16370.472 ng·h/mL
- CL/F ([8]; Day 1, 500 mg): 2.107 L/h
- Accumulation Ratio (AUC0-t) ([8]; 75 mg): 2.634
- Accumulation Ratio (AUC0-t) ([8]; 150 mg): 3.637
- Accumulation Ratio (AUC0-t) ([8]; 250 mg): 3.090
- Accumulation Ratio (AUC0-t) ([8]; 350 mg): 2.767
- Accumulation Ratio (AUC0-t) ([8]; 500 mg): 2.577
- AUC0-∞ ([8]; Day 15, 75 mg): 27200.362 ng·h/mL
- AUC0-24 ([8]; Day 15, 150 mg): 16642.661 ng·h/mL
- AUC0-t ([8]; Day 15, 150 mg): 16642.661 ng·h/mL
- AUC0-∞ ([8]; Day 15, 150 mg): 164073.250 ng·h/mL
- t½ ([8]; Day 15, 150 mg): 131.733 h
- Cmax ([8]; Day 15, 250 mg): 1047.832 ng/mL
- t½ ([8]; Day 15, 250 mg): 38.750 h
- AUC0-∞ ([8]; Day 15, 350 mg): 164113.625 ng·h/mL
- CL/F ([8]; Day 15, 350 mg): 1.607 L/h
- AUC0-24 ([8]; Day 15, 500 mg): 40465.337 ng·h/mL
- AUC0-t ([8]; Day 15, 500 mg): 40465.337 ng·h/mL
- AUC0-∞ ([8]; Day 15, 500 mg): 108301.704 ng·h/mL
- CL/F ([8]; Day 15, 500 mg): 1.031 L/h
Structure (SMILES): CN1CC[C@@H](c2c(O)cc(O)c3c(=O)cc(-c4ccc(C(F)(F)F)cc4Cl)oc23)[C@@H]1CO [Voruciclib, (+)-trans-2-(2-chloro-4-trifluoromethylphenyl)-5,7-dihydroxy-8-(2-hydroxymethyl-1-methylpyrrolidin-3-yl)-chromen-4-one]
- PR (number of patients) (Solid Tumors [1]): 1
- Differentiation syndrome (number of pts) ([3]; AML patients): 5
- Differentiation syndrome (share of pts) ([3]; AML patients): 50%
- GI toxicity or neutropenia ([3]; in vivo): No GI toxicity or neutropenia
- patients with decreased c-MYC expression / patients tested (c-MYC expression): 17/25
- synergy with Venetoclax [4]: Synergizes
- duration of SD, median (Solid Tumors [5]): 15 weeks
- most common AEs [6]: involved GI tract
- myelosuppression [6]: no evidence of myelosuppression
